# ChEMBL document CHEMBL3430912, “GSK Tres Cantos Anti-Kinetoplastid Screening (TCAKS) Data”
# Assays:
# [1] = tested on: Trypanosoma cruzi; experiment: GSK_TCAKS: pIC50 Trypanosoma cruzi viability assay using beta-GAL activity. This assay was run at single shot at 5uM compound concentration per well. The biological reagents consisted of NIH-3T3 host cells and trypomastigotes parasitic cells; both cell types were set to a 3.3 * 10^5 cells/mL dilution in assay DMEM by means of a CASY cell counter device using a 60um capillary. 6 uL of the mixture were dispensed per well (about 1 * 10^3 host-cells and 1 * 10^3 parasites) with a Multidrop Combi dispenser. […] In all wells, the percentage of DMSO never exceeded 0.5%. Plates incubated for four days at 37C, 5% CO2. The substrate used for the assay fluorescence intensity (FLINT) readout was resorufin-beta-D-galactopiranoside (Sigma-Aldrich) at 5uM per well. It was diluted in PBS supplemented with the soft detergent Igepal (Fluka).; assay type: functional, organism-based, Mus musculus; conditions: Tulahuen, NIH3T3
# [2] = tested on: Trypanosoma cruzi; experiment: (§1) GSK_TCAKS: pIC50 Trypanosoma cruzi Imaging: Infected Cells. […] Cells were then washed once with PBS before infection. T. cruzi trypomastigotes, collected at days 5 to 8 after infection from LLC-MK2 parasite infected cultures, were allowed to swim out for 4h at 37C from a centrifuged pellet (2,500 rpm/10 min/room temperature). Trypomastigotes were then collected and counted in a CASY Cell Counter. Trypomastigotes, in supplemented DMEM, were added to H9c2 cultures in a multiplicity of infection of 1 and incubated for 18 h. Cells were washed once with PBS before incubation of the infected H9c2 monolayer with trypsin (Life-Technologies) to detach cells from the flask. Cells were counted in a CASY Cell Counter using a 150 um capillary and their density set at 5 * 10^4 cells per mL in supplemented assay DMEM. Infected H9c2 were dispensed into 384-well poly-lysine coated assay plates at 50uL per well using a Multidrop Combi dispenser. After seeding them, the plates were incubated at 37C, 5% CO2 for 72h. Cultures were then fixed and stained by addition of 50 uL of a solution containing 8% formaldehyde and 4 uM DRAQ5 DNA dye (BioStatus, UK) per well. […] Five images were collected per well for reliable statistical analysis. Automated image analysis was performed with a script developed on Acapella High Content Imaging and Analysis Software (PerkinElmer). Output: percentage of infected cells per well as a second infection marker.; assay type: functional, organism-based, Rattus norvegicus; conditions: H9c2, 4 h
# [3] = tested on: Trypanosoma cruzi; experiment: GSK_TCAKS: pIC50 Trypanosoma cruzi Imaging: Amastigotes/Cell. […] Cells were then washed once with PBS before infection. T. cruzi trypomastigotes, collected at days 5 to 8 after infection from LLC-MK2 parasite infected cultures, were allowed to swim out for 4h at 37C from a centrifuged pellet (2,500 rpm/10 min/room temperature). Trypomastigotes were then collected and counted in a CASY Cell Counter. Trypomastigotes, in supplemented DMEM, were added to H9c2 cultures in a multiplicity of infection of 1 and incubated for 18 h. Cells were washed once with PBS before incubation of the infected H9c2 monolayer with trypsin (Life-Technologies) to detach cells from the flask. Cells were counted in a CASY Cell Counter using a 150 um capillary and their density set at 5 * 10^4 cells per mL in supplemented assay DMEM. Infected H9c2 were dispensed into 384-well poly-lysine coated assay plates at 50uL per well using a Multidrop Combi dispenser. After seeding them, the plates were incubated at 37C, 5% CO2 for 72h. Cultures were then fixed and stained by addition of 50 uL of a solution containing 8% formaldehyde and 4 uM DRAQ5 DNA dye (BioStatus, UK) per well. […] Five images were collected per well for reliable statistical analysis. Automated image analysis was performed with a script developed on Acapella High Content Imaging and Analysis Software (PerkinElmer). Output: number of amastigotes per cell as infection level measurement.; assay type: functional, organism-based, Rattus norvegicus; conditions: H9c2, 4 h
# [4] = tested on: Trypanosoma cruzi; experiment: as §1, with “H2C9” for “Trypanosoma cruzi”, “H9c2 Host Cardiomyocytes.” for “Infected Cells.”, “Number” for “percentage”, “H9c2 Host Cardiomyocytes nuclei to determine drug-related cytotoxicity.” for “infected cells per well as a second infection marker.”; assay type: functional, organism-based, Rattus norvegicus; conditions: H9c2, 4 h
# [5] = tested on: Leishmania donovani; experiment: GSK_TCAKS: pIC50 Leishmania donovani viability assay using fluorescence intensity. Assay plates (1536-well) were prepared by adding 30nL per well of compound. For single shot assay, the final compound concentration was 5uM. […] Briefly, eGFP LdBOB axenic amastigotes were harvested, fixed and counted in a CASY cell counter (Roche-Applied Science). A final concentration of 1.5 * 10^5 cells per well were prepared in amastigote media containing 500 U/mL penicillin/streptomycin (Invitrogen) and 6uL was dispensed to each experimental well using a Multidrop Combi dispenser (Thermo Scientific). 6uL of assay media was dispensed to control columns used as reference for 100% compound response. Following incubation for 72 h at 37C, 5% CO2, 2 uL of resazurin was added to each well at a final concentration of 0.5 mM in phosphate buffered saline (PBS) with IGEPAL (Sigma-Aldrich), 0.05% (v/v).; assay type: functional, organism-based
# [6] = tested on: Leishmania donovani; experiment: (§2) GSK_TCAKS: pIC50 Leishmania donovani Imaging: Infected Macrophages. Assay plates (384-well) were prepared by adding 250nL of compound to each well. For single shot assay, the final compound concentration was 5 uM. […] Automated image analysis was performed with a script developed on Acapella High Content Imaging and Analysis Software (PerkinElmer). Output: Percent of infected macrophage cells were reported for each well.; assay type: functional, organism-based, Homo sapiens; conditions: THP-1
# [7] = tested on: Leishmania donovani; experiment: as §2, with “Amastigotes/Macrophages.” for “Infected Macrophages.”, “Average number” for “Percent”, “amastigotes per” for “infected”, “cell” for “cells”; assay type: functional, organism-based, Homo sapiens; conditions: THP-1
# [8] = tested on: Leishmania donovani; experiment: as §2, with “THP-1 Host” for “Infected”, “THP-1 cell count” for “Percent of infected macrophage cells”; assay type: functional, organism-based, Homo sapiens
# [9] = tested on: Trypanosoma brucei brucei; experiment: GSK_TCAKS: pIC50 Trypanosoma brucei viability assay using fluorescence intensity. Assay plates (1536-well) were prepared by dispensing 25nL of compound solution per well using an Echo acoustic dispenser (Labcyte).; assay type: functional, organism-based; conditions: Lister 427, 2 h
# [10] = tested on: Trypanosoma brucei brucei; experiment: GSK_TCAKS: pIC50 Trypanosoma brucei viability assay using luminiscence. Assay plates (1536-well) were prepared. T. brucei cultures were harvested and counted in a CASY cell counter. A parasite suspension was prepared at a final concentration of 5 * 10^4 cells/mL in complete HMI9 medium and 6uL was dispensed to all wells containing compounds using a Multidrop Combi dispenser. 6uL of HMI9 media with 0.4% DMSO were dispensed to control columns. Plates were incubated for 24 h at 37C, 5% CO2 then tempered for 10 min at room temperature. ATP content was quantified by adding 4 uL of CellTiter-Glo Reagent (Promega) according to the manufacturer's instructions. Luminescence was measured using a ViewLux.; assay type: functional, organism-based; conditions: Lister 427, CASY
# [11] = GSK_TCAKS: pIC50 HepG2 human cell line viability assay using luminiscence. […] Seeding density was checked to ensure that new mono-layers were not more than 50% confluent at the time of harvesting. Cell suspension was added to 500 mL of the same medium at a final density of 1.2 * 10^5 cells/mL. This cell suspension was dispensed (25 uL, 3000 cells per well) into 384-well clear-bottom plates using a Multidrop Combi dispenser. Prior to addition of the cell suspension, the screening compounds (250 nL) were pre-dispensed into the plates with an Echo liquid handler. Plates were incubated for 48 h at 37C, 5% CO2. After incubation, plates equilibrated at room temperature for 30 min before proceeding to develop the luminescent signal. The signal developer, CellTiter-Glo Reagent, was allowed to equilibrate at room temperature for 30 min and added to the plates (25uL per well) using a Multidrop Combi dispenser. Plates were left for 10 min at room temperature for stabilization and then read using a ViewLux.; assay type: toxicity, cell-based
# [12] = target: Sterol 14-alpha demethylase (Trypanosoma cruzi (strain CL Brener), UniProt Q7Z1V1); experiment: GSK_TCAKS: pIC50 CYP51 from Trypanosoma cruzi.; assay type: functional
# Sequence of Sterol 14-alpha demethylase (Q7Z1V1 whole entry): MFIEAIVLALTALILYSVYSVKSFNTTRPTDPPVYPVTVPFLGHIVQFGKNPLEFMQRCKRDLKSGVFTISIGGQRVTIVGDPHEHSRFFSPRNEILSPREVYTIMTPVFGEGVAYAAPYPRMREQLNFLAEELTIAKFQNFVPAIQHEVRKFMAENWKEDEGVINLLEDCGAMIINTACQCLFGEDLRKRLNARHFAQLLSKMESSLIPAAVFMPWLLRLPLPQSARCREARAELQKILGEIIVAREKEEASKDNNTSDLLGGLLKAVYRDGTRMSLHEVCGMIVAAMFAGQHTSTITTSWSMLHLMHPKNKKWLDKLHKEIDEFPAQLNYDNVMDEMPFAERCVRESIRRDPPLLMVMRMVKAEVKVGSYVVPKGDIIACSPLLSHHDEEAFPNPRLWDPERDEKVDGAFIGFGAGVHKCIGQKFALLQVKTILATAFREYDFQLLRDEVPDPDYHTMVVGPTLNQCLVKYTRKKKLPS
Structure (SMILES),IC50 [1] [µM],IC50 [2] [µM],IC50 [3] [µM],IC50 [4] [µM],IC50 [5] [µM],IC50 [6] [µM],IC50 [7] [µM],IC50 [8] [µM],IC50 [9] [µM],IC50 [10] [µM],IC50 at 48 h [11] [µM],IC50 [12] [µM]
O=C1NCCn2ccc(Nc3nc(N[C@H]4CC[C@H](O)CC4)ncc3Cl)c21,6.31,20,3.16,0.398,2.51,1,0.631,0.398,0.501,0.631,> 100,> 100
N#Cc1cccc(CNc2ccc(-c3cnn(CC4CC4)c(=O)c3C#N)cc2)c1,5.01,7.94,5.01,> 50.1,25.1,1.26,0.251,6.31,10,12.6,> 100,6.31
COc1cc(OC)cc(C(=O)N[C@@H](CC(C)C)C(=O)NC2(C#N)CC2)c1,> 50.1,> 50.1,> 50.1,> 50.1,> 50.1,> 50.1,> 50.1,> 50.1,0.501,0.0631,> 100,> 100
Cc1ccc(S(C)(=O)=O)cc1Nc1nccc(-c2sc(N)nc2-c2ccccc2)n1,0.126,0.126,0.0794,5.01,3.16,5.01,2.51,20,0.794,1.58,31.6,> 100
CC(C)C[C@H](NC(=O)c1ccc(-c2ccccc2)o1)C(=O)NC1(C#N)CC1,31.6,> 50.1,25.1,> 50.1,> 50.1,> 50.1,15.8,> 50.1,0.1,0.0501,> 100,> 100
CCOC(=O)c1noc(N)c1-c1ccccc1,> 50.1,> 50.1,> 50.1,> 50.1,> 50.1,> 50.1,> 50.1,> 50.1,0.631,0.631,> 100,> 100
CC(C)C[C@H](NC(=O)c1csc(-c2cccs2)n1)C(=O)NC1(C#N)CC1,25.1,> 50.1,20,> 50.1,5.01,> 50.1,> 50.1,> 50.1,0.158,0.1,> 100,> 100
CN(C)S(=O)(=O)c1ccc(-c2cnc(N)c(-c3nc4ccc(F)cc4[nH]3)c2)cc1,1.26,> 50.1,> 50.1,1.26,2.51,1.58,0.631,3.98,0.398,1,> 100,39.8
Nc1cc(-c2ccc3ncnc(N4CCOCC4)c3c2)cnc1N,1.58,5.01,1.58,3.16,3.98,10,1.26,> 50.1,0.0501,0.158,> 100,79.4
NC(=O)c1cc(NC(=O)c2ccccc2COc2ccccc2)ccc1Cl,39.8,31.6,25.1,> 50.1,7.94,3.16,1.58,15.8,15.8,> 39.8,> 100,79.4
CC(=O)Nc1cccc(Nc2ncnc3[nH]cnc23)c1,> 50.1,39.8,25.1,> 50.1,> 50.1,> 50.1,39.8,10,0.126,0.398,> 100,> 100
